“And” between values parts separate entries of the source, which are not always exact repeats. Equal entries are not always repeated. Where two headings read alike, the source gives them in different places.
Assays:
LCL1 cells [1] = assay: Cell viability assay (CellTiter-Glo luminescence); assay type: cell-based, human; conditions: 72 h, duplicates
Description: (§1) After treatment, the cells were incubated with 100 μl buffer for 10 min at room temperature following the instructions of CellTiter-Glo kit (Promega, Madison, WI). Luminescence was detected using a multi-mode reader Cytation 5 (BioTek, Winooski, VT). […] Two independent experiments done in duplicates were performed.

[2] = tested on: PIK3CG knock-out Raji cells; assay: Western blot of PI3K/AKT associated proteins in knock-out cells; assay type: cell-based, human; conditions: 100 nM, 72 h
Description: (§2) Western blot analyses were performed as previously described. Briefly, total cell lysates were separated by SDS-PAGE gel and transferred to nitrocellulose membrane. The membranes were blocked with 5% non-fat milk, probed with specific antibodies, and visualized using the Odyssey scanner (LiCor Inc., Lincoln, NE).
Oligos were obtained from Integrated DNA Technologies (IDT; Coralville, IA, USA) and cloned into the lentiviral vector lentiCRISPR v2 (Addgene #52961)[66]. Lentivirus production and transduction have been described previously. Here, Raji cells were transduced with a lentivirus harboring lentiCRISPR v2 vector or a construct containing the guide sequence ([…]) against PIK3CG gene. At 48 h post-transduction, cells were selected with puromycin and harvested to determine PIK3CG expression with western blot.

LCL1 cells [3] = assay: RNA-Seq and Ingenuity Pathway Analysis (upstream regulator analysis); assay type: cell-based, human
Description: The cDNA library was prepared with the commercial Illumina library preparation kits (TruSeq Stranded RNA LT Ribo-Zero H/M/R Kit) according to the manufacturer’s protocols and sequenced with an Illumina HiSeq2000 instrument (Washington University Genome Sequencing Center). Quality check was performed on the raw RNA-Seq reads (FastQC, https://www.bioinformatics.babraham.ac.uk/projects/fastqc/), and the adapters were cut (Trim Galore, https://www.bioinformatics.babraham.ac.uk/projects/trim_galore/) and mapped with hg38 genome (HISAT2)[64]. Differentially expressed transcripts were defined with Cuffdiff tools[65] and visualized using R software (https://www.r-project.org/). Signaling pathway analysis was conducted with the Ingenuity Pathway Analysis program (QIAGEN Inc., https://www.qiagenbioinformatics.com/products/ingenuitypathway-analysis)[27].

PI3Kγ = biological target: T1, PI3Kγ (Homo sapiens, UniProt P48736); assay: Competitive binding pull-down assay in SU-DHL-4 cell lysates, western blot; conditions: SU-DHL-4 lysates, 51048 together with parent Brusatol
T1 construct: endogenous in cells; host or cells: SU-DHL-4 cells (lysate)
Description: Thirty microgram of purified GST-tagged proteins were pre-cleared with Dynabeads M-280 Streptavidin (Invitrogen, Carlsbad, CA, USA). […] The complexes were harvested and washed with PBS. The collected beads were mixed with SDS loading buffer for further analysis.
as §2

[4] = tested on: PDX-255 (Burkitt's lymphoma); assay: Cell viability assay in patient-derived xenograft cells; assay type: cell-based, human; conditions: PDX-255, different concentrations, 72 h
Description: as §1, with “5000 cells as indicated were cultured in 96-well plate with 100 μl of media. On the next day, Brusatol or associated analogs were added once to the cells without media change. After” for “After”

[5] = tested on: PDX-223 (Diffuse large B cell lymphoma); assay: as above; assay type: cell-based, human; conditions: PDX-223, different concentrations, 72 h
Description: as §1, with “5000 cells as indicated were cultured in 96-well plate with 100 μl of media. On the next day, Brusatol or associated analogs were added once to the cells without media change. After” for “After”

[6] = tested on: PDX-129 (B-cell Follicular lymphoma); assay: as above; assay type: cell-based, human; conditions: PDX-129, different concentrations, 72 h
Description: as §1, with “5000 cells as indicated were cultured in 96-well plate with 100 μl of media. On the next day, Brusatol or associated analogs were added once to the cells without media change. After” for “After”

[7] = Body weight of xenograft mice; assay type: in vivo, NOD/SCID mice; conditions: individual mice, Fig S3i, in g (unit assumed)
Description: Six-week-old male NOD.CB17-Prkdc^scid/J (NOD/SCID) mice (Jackson Labs, Bar Harbor, ME, USA) were used as the human-in-mouse xeno-transplantation model. MOLM14 cells (1 × 10^7 cells) were injected into the subcutaneous space on the left flank of the mice. […] Body weight and tumor size were monitored before every injection. After treatment for 2 weeks, the mice were euthanized by CO2 inhalation and the tumors were carefully excised. The tumor volume (mm^3) was measured and calculated using the formula (a × b × b)/2 (a, the largest diameter of two measurements; b, the smallest diameter of two measurements).

[8] = Cytotoxicity, cell viability assay in normal cells; assay type: cell-based; conditions: human, fraction of 0 μM control; for viability at 0.000244141 μM: Con. 0.000244141 μM; for viability at 0.015625 μM: Con. 0.015625 μM; for viability at 0.0625 μM: Con. 0.0625 μM; for viability at 1 μM: Con. 1 μM
Source text: Human peripheral blood mononuclear cells (PBMCs), normal T-cells and B-cells were provided by the University of Pennsylvania Human Immunology Core (HIC), and Patient-derived xenografts (PDXs) were obtained from Fox Chase Cancer Center (FCCC). These samples were from different unidentified and healthy donors with written, informed consent. All the procedures were approved by the Institutional Review Board (IRB) and conducted according to the declarations of Helsinki protocols.
as §1, with “5000 cells as indicated were cultured in 96-well plate with 100 μl of media. […] After” for “After”

[9] = Brusatol-treated LCL1 cells, RNA-Seq, IPA
[10] = B-cells, read-out: relative cell viability (Fig 6c), replicates
[11] = T-cells, read-out: relative cell viability (Fig 6b), replicates

T1 sequence (P48736 whole entry): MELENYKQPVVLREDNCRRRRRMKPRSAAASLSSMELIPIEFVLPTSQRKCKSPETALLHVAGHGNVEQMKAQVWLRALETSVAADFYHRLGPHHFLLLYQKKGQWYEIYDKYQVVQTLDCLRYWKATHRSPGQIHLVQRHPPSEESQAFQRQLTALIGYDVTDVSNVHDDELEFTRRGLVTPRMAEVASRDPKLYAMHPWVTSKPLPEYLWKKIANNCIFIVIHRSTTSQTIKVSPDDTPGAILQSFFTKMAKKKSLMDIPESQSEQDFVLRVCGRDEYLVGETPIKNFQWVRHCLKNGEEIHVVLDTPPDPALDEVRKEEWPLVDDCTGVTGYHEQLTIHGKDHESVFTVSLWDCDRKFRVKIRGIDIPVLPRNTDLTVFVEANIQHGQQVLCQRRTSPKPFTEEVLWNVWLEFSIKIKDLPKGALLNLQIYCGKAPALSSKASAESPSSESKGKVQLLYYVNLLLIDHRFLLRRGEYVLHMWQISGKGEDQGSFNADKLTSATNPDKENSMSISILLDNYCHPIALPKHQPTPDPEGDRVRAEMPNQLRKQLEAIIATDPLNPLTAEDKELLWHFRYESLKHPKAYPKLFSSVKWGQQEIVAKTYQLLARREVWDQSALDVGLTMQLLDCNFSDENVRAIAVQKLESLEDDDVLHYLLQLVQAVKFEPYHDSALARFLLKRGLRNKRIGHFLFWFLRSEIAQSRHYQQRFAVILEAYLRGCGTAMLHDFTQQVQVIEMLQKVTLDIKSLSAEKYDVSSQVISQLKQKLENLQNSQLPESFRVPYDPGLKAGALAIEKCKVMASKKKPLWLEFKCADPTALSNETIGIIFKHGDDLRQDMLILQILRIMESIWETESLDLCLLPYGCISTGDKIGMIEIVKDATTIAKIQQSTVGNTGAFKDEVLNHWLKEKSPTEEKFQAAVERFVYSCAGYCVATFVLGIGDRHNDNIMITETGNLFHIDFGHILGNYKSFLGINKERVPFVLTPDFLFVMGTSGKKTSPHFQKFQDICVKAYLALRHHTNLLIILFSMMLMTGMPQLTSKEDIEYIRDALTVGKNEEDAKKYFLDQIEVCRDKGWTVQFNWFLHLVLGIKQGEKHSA

Brusatol
Cell viability (luminescence) (LCL1 cells [1]; LCL1, cell number 0, 100 nM): 0.8054 and 1.195 | Cell viability (luminescence) (LCL1 cells [1]; LCL1, cell number 625, 100 nM): 1.142 and 1.405 | Cell viability (luminescence) (LCL1 cells [1]; LCL1, cell number 1250, 100 nM): 2.424 and 2.078 | Cell viability (luminescence) (LCL1 cells [1]; LCL1, cell number 2500, 100 nM): 3.232 and 2.818 | Cell viability (luminescence) (LCL1 cells [1]; LCL1, cell number 5000, 100 nM): 3.613 and 2.736 | Cell viability (luminescence) (LCL1 cells [1]; LCL1, cell number 10000, 100 nM): 4.594 and 3.987 | AKT1 level [2]: no obvious decrease | Expr Other, upstream regulator ALDH1A2 (LCL1 cells [3]; [9]): -1.404 | Expr Other, upstream regulator ARRB2 (LCL1 cells [3]; [9]): -0.306 | Expr Other, upstream regulator CBX5 (LCL1 cells [3]; [9]): -1.126 | Expr Other, upstream regulator CD22 (LCL1 cells [3]; [9]): 2.89 | Expr Other, upstream regulator CDC73 (LCL1 cells [3]; [9]): -0.568 | Expr Other, upstream regulator CYLD (LCL1 cells [3]; [9]): -1.473 | Expr Other, upstream regulator DICER1 (LCL1 cells [3]; [9]): 1.146 | Expr Other, upstream regulator DNAJB6 (LCL1 cells [3]; [9]): 0.673 | Expr Other, upstream regulator FKBP4 (LCL1 cells [3]; [9]): 0.61 | Expr Other, upstream regulator GMNN (LCL1 cells [3]; [9]): -1.679 | Expr Other, upstream regulator GRN (LCL1 cells [3]; [9]): 0.925 | Expr Other, upstream regulator IFNGR1 (LCL1 cells [3]; [9]): 0.304 | Expr Other, upstream regulator KMT2D (LCL1 cells [3]; [9]): -0.912 | Expr Other, upstream regulator NONO (LCL1 cells [3]; [9]): 1.295 | Expr Other, upstream regulator PAX8 (LCL1 cells [3]; [9]): 1.9 | Expr Other, upstream regulator PTPRJ (LCL1 cells [3]; [9]): -1.699 | Expr Other, upstream regulator RARRES3 (LCL1 cells [3]; [9]): 2.648 | Expr Other, upstream regulator SOD2 (LCL1 cells [3]; [9]): 1.251 | Expr Other, upstream regulator UPF2 (LCL1 cells [3]; [9]): -0.435 | Expr Other, upstream regulator WDR5 (LCL1 cells [3]; [9]): 0.395 | Expr Other, upstream regulator ZC3H12A (LCL1 cells [3]; [9]): -1.316 | CTNNA1 transcript (RNA-Seq) (LCL1 cells [3]; LCL1, 72 h): dramatically downregulated | SLC22A1 transcript (RNA-Seq) (LCL1 cells [3]; LCL1, 72 h): highly upregulated | binding of 51048 with PI3Kγ in the presence of competitor (PI3Kγ): reduced | inhibition of cell viability [4]: inhibited | inhibition of cell viability [5]: inhibited | inhibition of cell viability [6]: inhibited

COC(=O)C12OCC34C(CC5C(C)=C(OC(=O)CNC(=O)OC(C)(C)C)C(=O)CC5(C)C3C(O)C1O)OC(=O)C(OC(=O)C=C(C)C)C24 (centres unmarked) [#15]
Body weight ([7]; 0d): 22.36 and 23.19 and 22.87 and 22.58 and 24.63 | Body weight ([7]; 2d): 23.14 and 23.83 and 23.95 and 23.84 and 24.63 | Body weight ([7]; 4d): 23.76 and 24.67 and 24.61 and 23.58 and 25.59 | Body weight ([7]; 6d): 23.47 and 24.61 and 23.88 | Body weight ([7]; 8d): 23.92 and 24.24 and 24.72 and 24.85 and 23.89 and 25.62 | Body weight ([7]; 10d): 24.4 and 25.19 and 24.12 | Body weight ([7]; 12d): 25.79 and 25.75 and 24.71 and 26.96 | viability at 0.000244141 μM [8, 10]: 80.4% | viability at 0.00390625 μM ([8]; B-cells, Con. 0.00390625 μM, read-out: relative cell viability (Fig 6c), replicates): 96.8% | viability at 0.015625 μM [8, 10]: 100% | viability at 0.0625 μM [8, 10]: 89.1% | viability at 1 μM [8, 10]: 91.6% | viability at 0.000244141 μM [8, 11]: 101% | viability at 0.015625 μM [8, 11]: 83.4% | viability at 0.0625 μM [8, 11]: 82.3% | viability at 1 μM [8, 11]: 83.3%

Source: publication PMC7253423, “Quassinoid analogs with enhanced efficacy for treatment of hematologic malignancies target the PI3Kγ isoform” (Communications Biology, 2020)
